# Reference: patent US9809557B2 (priority 2011, dated 2017)
# “And” between values parts separate entries of the source, which are not always exact repeats. Equal values may be shown once.
# Experiments:
# [1] = Precipitation on addition of acidic prodrug solution to phosphate buffer pH 7.4; assay type: physicochemical; conditions: 1.0 mL aqueous solution pH 3.4 added to 1.0 mL 67 mM phosphate buffer pH 7.4
# Description: At appropriate time intervals, samples were withdrawn and centrifuged for 5 min at 13,000 rpm and the supernatant was analysed by HPLC for DPX-4-0001 and formed ketorolac. The HPLC method described in Example 26 was applied. […] A slight increase in the ketorolac concentration is the result of pH dependent hydrolysis of the prodrug bond (FIG. 3).
# The pH in the suspension was measured to 7.0.
# [2] = Stability (cleavage to parent drug) of prodrug suspensions in PBS pH 7.4; assay type: physicochemical; conditions: for half-life at 0.5 mg/mL: 67 mM phosphate buffer (PBS), PBS pH 7.4, 37° C., read-out: t1/2 in PBS (converted); for apparent pseudo-zero-order rate constant k0: appearance of parent drug in PBS pH 7.4 suspension, 37° C.; for estimated pseudo first-order rate constant khyd: cleavage of prodrug in PBS pH 7.4, 37° C., calculated from k0 and Sprodrug
# Description: Suspensions of the prodrugs in 67 mM phosphate buffer pH 7.4 (PBS) were prepared by adding 10 mL PBS to approximately 5 mg prodrug. The suspensions were kept unstirred at 37° C. in an incubator hood. At appropriate time intervals over 23 days, about 500 μL samples were taken and after filtration (disposable syringe filters), the solutions were analyzed immediately by HPLC for parent drug and remaining prodrug. Quantitation of parent drug and prodrug was done from peak area measurements in relations to those of standards analysed by HPLC at the same conditions.
# From the observed relatively stable concentration of dissolved prodrugs measured in the suspensions after 8-9 day up to 23 days, the solubilities of the prodrugs (Sprodrug) were determined. In this time interval, the rate of appearance of parent drug was determined and an apparent pseudo-zero-order rate constant (k0) was obtained. By assuming that the dissolution rates were much faster than the conversion of the prodrugs to the parent drug, pseudo first-order rate constants (khyd) for cleavage of the prodrugs were calculated according to:
# [3] = Solubility of the prodrugs in PBS (67 mM phosphate buffer pH 7.4); conditions: for solubility thermodynamic: 67 mM phosphate buffer pH 7.4 (PBS), 37 °C; for Sprodrug ± SD: PBS (67 mM phosphate buffer pH 7.4), 37° C.
# Description: The determination of the solubility of a prodrug at different pH values of interest according to the present invention is carried by adding excess solid prodrug to a container containing a buffer solution with well-defined pH. The mixture is rotated at constant temperature until an equilibrium between solid prodrug and prodrug in solution has established (that is until the prodrug concentration in the supernatant remains constant). At each measurement the pH of the supernatant is controlled and, if needed, adjusted to the desired pH.
# Suspensions of the prodrugs in 67 mM phosphate buffer pH 7.4 (PBS) were prepared by adding 10 mL PBS to approximately 5 mg prodrug. The suspensions were kept unstirred at 37° C. in an incubator hood. At appropriate time intervals over 23 days, about 500 μL samples were taken and after filtration (disposable syringe filters), the solutions were analyzed immediately by HPLC for parent drug and remaining prodrug. Quantitation of parent drug and prodrug was done from peak area measurements in relations to those of standards analysed by HPLC at the same conditions. […] For the diclofenac and ibuprofen prodrugs, the following method was used: Merck Hitachi L 6000 pump connected to Merck Hitachi 4250 UV detector. Reversed phase chromatography was performed using a C18 Gemini® RP column (150×4.6 mm, 5 μm particles) (Phenomenex, Torrance, Calif., USA) equipped with a SecurityGuard precolumn (Phenomenex, Torrance, Calif., USA). The flow rate was set at 1 mL/min and the column effluent was monitored at 230 nm. The mobile phase consisted of 35% (v/v) acetonitrile and 65% (v/v) of 0.1% (v/v) phosphoric acid pH 3.2. The retention times varied in the range of 3 to 30 min.
# From the observed relatively stable concentration of dissolved prodrugs measured in the suspensions after 8-9 day up to 23 days, the solubilities of the prodrugs (Sprodrug) were determined.
# [4] = Hydrolysis of the prodrugs in 80% human plasma; assay type: in vitro ADME; conditions: for half-life: read-out: t1/2 in plasma
# Description: At 37±0.5° C., the hydrolysis rate of the prodrugs was measured in 80% human plasma. An appropriate aliquot (20-100 μL) of 1 mg/ml prodrug solution in methanol was transferred to 5.0 ml of preheated plasma. At appropriate time intervals, 300 μl sample aliquots were withdrawn and transferred to 600 μl acetonitrile and mixed thoroughly. After centrifugation at 13500 rpm for 5 min, the supernatant was analyzed by HPLC for parent drug and remaining prodrug.
# [5] = Solubility at acidic pH, with and without DMA cosolvent; assay type: physicochemical
# Description: A suspension of DPX-2-0007 (as hydrochloride salt) was formed by adding 30 mg to 4 mL demineralized water. After rotation of the suspension at 37° C. for 3 days, 1.0 mL sample was taken and after filtration (disposable syringe filters), the solution was diluted in methanol:water 1:1 and analyzed immediately by HPLC for prodrug. […] The pH in the solution was measured to 3.40. The following HPLC method was used: Merck Hitachi L 6200 pump connected to Merck Hitachi 4250 UV detector. Reversed phase chromatography was performed using a RP 18 Symmetry Shields® column (150×4.6 mm, 5 μm particles) equipped with a SecurityGuard precolumn (Phenomenex, Torrance, Calif., USA). […] The retention time of naproxen and DPX-2-0007 were 19 and 5.8 min, respectively.
# A suspension of DPX-2-0006 was formed by adding 10 mg to 3 mL demineralized water, 0.05 mL 0.100 M HCl was added to obtain a pH of 3. After rotation of the suspension at 37° C. for 1 days, 0.5 mL sample was taken and after filtration (disposable syringe filters), the solution was diluted in methanol:water 1:1 and analyzed immediately by HPLC for prodrug. […] The HPLC method described in Example 29 was applied and the retention time of DPX-2-0006 was 14 min, respectively. N,N-dimethylacetamide (DMA) was added stepwise to the acidic suspension of DPX-2-0006 and the amount of DPX-2-000 dissolved in the presence of various volumes of DMA was determined after 1-3 days rotation at 37° C. as described above.
# pKa value = assay type: physicochemical
# [6] = pH 7.4, aqueous buffer, thermodynamic from solid
# [7] = hydrolysis in 80% human plasma at 37° C.
Compound,half-life at 0.5 mg/mL [2],apparent pseudo-zero-order rate constant k0 [2],estimated pseudo first-order rate constant khyd [2],"solubility thermodynamic [3, 6]",Sprodrug ± SD [3],"half-life [4, 7]",other results
"CN(C)c1ccc(CCOC(=O)Cc2ccccc2Nc2c(Cl)cccc2Cl)cc1 [DPX-1-0001, 4-(dimethylamino)phenethyl 2-(2-(2,6-dichlorophenylamino)phenyl)acetate]",–,–,–,0.01 µg/mL,2e-05 mM,–,–
"CN(C)c1ccc(CCO)cc1 [IPU 1, 4-(hydroxyethyl)-N,N-dimethylaniline]",–,–,–,–,–,–,pKa (pKa value): ~5.2
"Cn1ccnc1CCOC(=O)Cc1ccccc1Nc1c(Cl)cccc1Cl [DPX-1-0011, 2-(1-methyl-1H-imidazol-2-yl)ethyl 2-(2((2,6-dichlorophenyl)amino)phenyl)acetate]",–,–,–,0.1 µg/mL,0.0002 mM,–,–
"O=C(Cc1ccccc1Nc1c(Cl)cccc1Cl)OCCCCCCn1ccnc1 [DPX-1-0009, 6-(1H-imidazol-1-yl)hexyl 2-(2-(2,6-dichlorophenylamino)phenyl)acetate]",–,–,–,< 0.3 µg/mL,<0.0007 mM,–,–
"CCCc1nccn1CCCCCCOC(=O)Cc1ccccc1Nc1c(Cl)cccc1Cl [DPX-1-0010, 6-(2-propyl-1H-imidazol-1-yl)hexyl 2-(2-(2,6-dichiorophenylamino)phenyl)acetate]",–,–,–,< 0.4 µg/mL,<0.0008 mM,–,–
"CCCc1nccn1CCOC(=O)Cc1ccccc1Nc1c(Cl)cccc1Cl [DPX-1-0008, 2-(2-propyl-1H-imidazol-1-yl)ethyl 2-(2-(2,6-dichlorophenylamino)phenyl)acetate]",–,–,–,0.3 µg/mL,0.0007 mM,–,–
"O=C(Cc1ccccc1Nc1c(Cl)cccc1Cl)OCCn1ccnc1-c1ccccc1 [DPX-1-0007, 2-(2-phenyl-1H-imidazol-1-yl)ethyl 2-(2-((2,6-dichlorophenyl)amino)phenyl)acetate]",242 days,2.5e-07 M/day,0.0029 day⁻¹,43 ± 2 µg/mL,0.086 ± 0.003 mM,0.817 h,–
"O=C(Cc1ccccc1Nc1c(Cl)cccc1Cl)OCCc1ccccn1 [DPX-1-0004, 2-(pyridin-2-yl)ethyl 2-(2-((2,6-dichlorophenyl)amino)phenyl)acetate]",5 days,1.1e-06 M/day,0.15 day⁻¹,3 ± 1 µg/mL,0.007 ± 0.001 mM,0.417 h,–
"CN(CCOC(=O)Cc1ccccc1Nc1c(Cl)cccc1Cl)c1ccccc1 [DPX-1-0002, 2-(methyl(phenyl)amino)ethyl 2-(2-(2,6-dichlorophenylamino)phenyl)acetate]",–,–,–,< 0.1 µg/mL,<0.0002 mM,–,–
COc1ccc2cc(C(C)C(=O)OCCn3ccnc3)ccc2c1 (stereo not drawn),–,–,–,146 ± 5 µg/mL,0.45 ± 0.02 mM,1.07 h,–
"O=C(Cc1ccccc1Nc1c(Cl)cccc1Cl)OCCn1ccnc1 [DPX-1-0005, 2-(1H-imidazol-1-yl)ethyl 2-(2-(2,6-dichlorophenylamino)phenyl)acetate]",–,–,–,1 µg/mL,0.003 mM,–,–
"O=C(Cc1ccccc1Nc1c(Cl)cccc1Cl)OCCn1cnc2ccccc21 [DPX-1-0006, 2-(1H-benzo[d]imidazol-1-yl)ethyl 2-(2-((2,6-dichlorophenyl)amino)phenyl)acetate]",4 days,2.4e-06 M/day,0.17 day⁻¹,7 ± 2 µg/mL,0.015 ± 0.004 mM,0.05 h,–

# Now from value to compound, other results behind:
half-life at 0.5 mg/mL [2],apparent pseudo-zero-order rate constant k0 [2],estimated pseudo first-order rate constant khyd [2],"solubility thermodynamic [3, 6]",Sprodrug ± SD [3],"half-life [4, 7]",Compound,other results
11 days,1e-06 M/day,0.065 day⁻¹,16 ± 1 µM,7 ± 1 µg/mL,1.03 h,"COc1ccc2cc(C(C)C(=O)OCCn3ccnc3-c3ccccc3)ccc2c1 (stereo not drawn) [DPX-2-0007, 2-(2-phenyl-1H-imidazol-1-yl)ethyl 2-(6-methoxynaphthalen-2-yl)propanoate]","precipitation after addition to buffer [1]: a precipitation was immediately observed; solubility ([3]; 67 mM phosphate buffer (PBS), pH 7.4, aqueous buffer, thermodynamic from solid): 7 µg/mL; solubility at 3 days ([5]; demineralized water, 37 °C, pH 3.4, water, thermodynamic from solid, pH 3.4, hydrochloride salt in demineralized water, 3 days): 6800 µg/mL; fold increase in solubility at pH 3.4 compared to buffer pH 7.4 (PBS) ([5]; pH 3.4 vs pH 7.4): 1000 fold"
–,–,–,< 1 µg/mL,<0.003 mM,–,"COc1ccc2cc(C(C)C(=O)OCCCN(C)c3ccccc3)ccc2c1 (stereo not drawn) [DPX-2-0003, 3-(methyl(phenyl)amino)propyl 2-(6-methoxynaphthalen-2-yl)propanoate]",–
11 days,1e-06 M/day,0.066 day⁻¹,–,5 ± 1 μg/mL and 0.015 ± 0.002 mM,8.52 h,"COc1ccc2cc(C(C)C(=O)OCCn3cnc4ccccc43)ccc2c1 (stereo not drawn) [DPX-2-0006, 2-(1H-benzo[d]imidazol-1-yl)ethyl 2-(6-methoxynaphthalen-2-yl)propanoate]","solubility at 1 day ([5]; demineralized water acidified with HCl, 37 °C, pH 2.9, aqueous buffer, thermodynamic from solid, pH 2.9, 37° C., no DMA): 180 µg/mL"
–,–,–,< 0.2 µg/mL,<0.0006 mM,–,"COc1ccc2cc(C(C)C(=O)OCCN(C)c3ccccc3)ccc2c1 (stereo not drawn) [DPX-2-0002, 2-(methyl(phenyl)amino)ethyl 2-(6-methoxynaphthalen-2-yl)propanoate]",–
–,–,–,< 0.3 µg/mL,<0.0006 mM,–,"O=C(Cc1ccccc1Nc1c(Cl)cccc1Cl)OCCOCCn1ccnc1-c1ccccc1 [DPX-1-0012, 2-(2-(2-phenyl-1H-imidazol-1-yl)ethoxy)ethyl 2-(2-((2,6-dichlorophenyl)-amino)phenyl)acetate]",–
15 days,5.7e-07 M/day,0.048 day⁻¹,4 ± 0.2 µg/mL,0.012 ± 0.001 mM,–,"CC(C)Cc1ccc(C(C)C(=O)OCCn2cnc3ccccc32)cc1 (stereo not drawn) [DPX-3-0006, 2-(1H-benzo[d]imidazol-1-yl)ethyl 2-(4-isobutylphenyl)propanoate]","stability on incubation in plasma ([4]; 80% human plasma, 37° C., incubation for 10 h): remained intact; t1/2 in plasma [4, 7]: stable"
21 days,1.7e-06 M/day,0.033 day⁻¹,19 ± 1 µg/mL,0.052 ± 0.002 mM,4.78 h,"COc1ccc2cc(C(C)C(=O)OCCc3ccccn3)ccc2c1 (stereo not drawn) [DPX-2-0004, 2-(pyridin-2-yl)ethyl 2-(6-methoxynaphthalen-2-yl)propanoate]",–
32 days,1e-06 M/day,0.022 day⁻¹,15 ± 2 µg/mL,0.044 ± 0.004 mM,12.6 h,"CC(C)Cc1ccc(C(C)C(=O)OCCc2ccccn2)cc1 (stereo not drawn) [DPX-3-0004, 2-(pyridin-2-yl)ethyl 2-(4-isobutylphenyl)propanoate]",–
–,–,–,1 µg/mL,0.002 mM,–,"CC(C)Cc1ccc(C(C)C(=O)OCCn2ccnc2-c2ccccc2)cc1 (stereo not drawn) [DPX-3-0007, 2-(2-phenyl-1H-imidazol-1-yl)ethyl 2-(4-isobutylphenyl)propanoate]",–
–,–,–,< 0.3 µg/mL,<0.0008 mM,–,"COc1ccc2cc(C(C)C(=O)OCCc3ccc(N(C)C)cc3)ccc2c1 (stereo not drawn) [DPX-2-0001, 4-(dimethylamino)phenethyl 2-(6-methoxynaphthalen-2-yl)propanoate]",–
